Measured values reported in US12102651B1, “Solvent-based method for making nanocomposite pharmaceutical material” (Imam Abdulrahman Bin Faisal University, priority 2022, dated 2024).

What was measured:
[1] = system: Pseudomonas aeruginosa ATCC27853; assay: Broth dilution MIC/MBC against Pseudomonas aeruginosa; type: cell-based; conditions: P. aeruginosa, 24 h, 37° C.
Experimental: (§1) Bacterial strains of Pseudomonas aeruginosa ATCC27853 (gram-negative) and Staphylococcus aureus ATCC25923 (gram-positive) were subjected to antibacterial studies. The bacteria were sub-cultured and maintained on Mueller Hinton Agar (MHA). A stock solution of the nanomaterial (8 mg/ml) was sonicated for 10 minutes in Mueller Hinton Broth (MHB) to obtain a homogenized solution for an antibacterial assay. Inoculum was prepared by adjusting the cell number to 1.5×10^8 colony forming unit per milliliter (CFU per ml) by using freshly grown strains, grown overnight at 37° C. […] About 100 μL of adjusted inoculum was inoculated into each tube and were further incubated for 24 h (at 37° C.) with agitation of 120 rotations per minute (rpm). A control tube of bacteria, also referred as control, had no nanomaterial. 10 μL extracted from the tubes were put on prepared MHA plates and further incubated at the same conditions. After the completion of incubation duration, the MHA plates were recorded for MIC and MBC values. MIC was taken as the lowest concentration of nanomaterial that inhibited 90% of the bacterial growth. However, MBC was recorded as the lowest concentration that killed the bacterial cells or had CFU less than three. […]

[2] = system: Staphylococcus aureus ATCC25923; assay: Broth dilution MIC/MBC against Staphylococcus aureus; type: cell-based; conditions: S. aureus, 24 h, 37° C.
Experimental: as §1

[3] = system: human colorectal carcinoma (HCT-116) cells; assay: MTT cell viability assay on HCT-116 cells; type: cell-based
Experimental: (§2) Two cancer cell lines, namely, HCT-116 and HeLa were considered to study the impact of samples (medicinal nanocomposite) on viability and proliferation of such cell lines. A non-cancer cell line, embryonic kidney cells (HEK-293), was considered as a control cell line. HCT-116, HeLa and HEK-293 are collectively referred to as ‘the cells’ or individually as ‘the cell’ unless otherwise specified. The cells were cultured and maintained in the Dulbecco's Modified Eagle Media (DMEM), L-glutamine (5%), penicillin (1%), streptomycin (1%), Fetal bovine serum (FBS) (10%), and selenium chloride (1%). The cells were grown in 96 well plates in a 5% CO2 incubator (Thermo Fisher Scientific, Inc., Waltham, MA, USA) at 37° C., and 75-80% confluence cells and the cells processed for further assay.
A MTT assay is a colorimetric assay for measuring cell metabolic activity. […]
In control and nano formulation treated cells, MTT (5 mg/ml) was added, and the cells were further incubated in a CO2 incubator for 4 hours. Further, the cell culture media was replaced with dimethyl sulfoxide (DMSO) (1%), and the 96-well plate was further examined under an enzyme-linked immunoassay (ELISA) plate reader (Biotek Instruments, USA) at a wavelength of 570 nm. The percentage of cell viability was calculated for a statistical analysis. […]

[4] = system: human cervical cancer (HeLa) cells; assay: MTT cell viability assay on HeLa cells; type: cell-based; conditions: for effect on HeLa cell viability, growth and proliferation (in words): 48 hours, 5.0 to 50 μg/ml
Experimental: as §2
A MTT assay is a colorimetric assay for measuring cell metabolic activity. The MTT assay is based on the ability of nicotinamide adenine dinucleotide phosphate (NADPH)-dependent cellular oxidoreductase enzymes to reduce the tetrazolium dye MTT to insoluble formazan, which has a purple colour. […] In control group, MSS, 1 wt. % Ag/MSS, 2 wt. % Ag/MSS, 4 wt. % Ag/MSS, 6 wt. % Ag/MSS, Ag-silicalite, and CP were […] and after 48 hours, the cells were incubated in MTT (Sigma-Aldrich, St. Louis, MO, USA) for 4 hours.
In control and nano formulation treated cells, MTT (5 mg/ml) was added, and the cells were further incubated in a CO2 incubator for 4 hours. Further, the cell culture media was replaced with dimethyl sulfoxide (DMSO) (1%), and the 96-well plate was further examined under an enzyme-linked immunoassay (ELISA) plate reader (Biotek Instruments, USA) at a wavelength of 570 nm. The percentage of cell viability was calculated for a statistical analysis. ANOVA were used to analyze the data. All the analysis was run on GraphPad Prism software. P value less than 0.05 was taken as significant difference in results.

[5] = system: HCT-116 cells; assay: Apoptotic DAPI staining assay on HCT-116 cells; type: cell-based, human; conditions: HCT-116, 25 μg/ml, 48-hour treatment
Description: DAPI is a fluorescent dye used to distinguish between live and dead cells. In live cells, the dye pass through a membrane less effectively. Therefore, the DAPI staining assay is an effective marker to identify the cell viability based on the cell structural changes. The morphology changes of cancer nuclear structure due to treatments of MSS, 1 wt. % Ag/MSS, 2 wt. % Ag/MSS, 4 wt. % Ag/MSS, 6 wt. % Ag/MSS, Ag-silicalite, and CP were examined by the DAPI staining assay. Cells were divided into two groups such as a control group and an experimental group. The control group was without nano formulation and CP treatments. In the experimental group, 1 wt. % Ag/MSS, 2 wt. % Ag/MSS, 4 wt. % Ag/MSS, 6 wt. % Ag/MSS, Ag-silicalite, and CP (25 μg/ml) were added.
Post 48-hour treatment, the control and experimental groups were exposed to ice-cold (4%) paraformaldehyde and further with Triton X-100 in the PBS solution. The cells were stained with DAPI (1.0 μg/ml) for 5 minutes under a dark environment, and the cells were finally washed with the PBS solution and cover slipped. A deoxyribonucleic acid (DNA) staining was examined by using confocal scanning microscope (Zeiss, Germany). The data presented as mean (±) standard deviation (SD) obtained from triplicates and one-way ANOVA followed by Dennett's post hoc test with GraphPad Prism Software (GraphPad Software, USA) for final statistical analysis.

Row | Compound | antibacterial activity, MIC/MBC (in words) [1] | antibacterial activity, MIC/MBC (in words) [2] | effect on HCT-116 cell viability, growth and proliferation (in words) ([3]; 48 hours, 5.0 to 50 μg/ml) | inhibitory concentration (IC50) ([3]; HCT-116 cells, 48 hours treatment) [µg/mL] | effect on HeLa cell viability, growth and proliferation (in words) [4] | effect on HeLa cell viability, growth and proliferation (in words) ([4]; listed as cisplatin) | inhibitory concentration (IC50) ([4]; HeLa cells, 48 hours treatment) [µg/mL] | number of DAPI stained colon cancer cells versus control (in words) [5]
1 | O=[N+]([O-])[O-].[Ag+] [AgNO3, Silver nitrate] | showed effectiveness | showed effectiveness | – | – | – | – | – | –
2 | N.N.[Cl][Pt][Cl] [CP, cisplatin] | – | – | dose-dependent inhibitory action | 13 | dose-dependent inhibitory action | significant decrease | 13 | significant decrease in the number of colon cancer cells
